{
  "source": "paper PMC9578396",
  "about": "“Intrinsic Antibacterial Activity of Xeruborbactam In Vitro: Assessing Spectrum and Mode of Action” (Antimicrobial Agents and Chemotherapy, 2022)",
  "key": {"[1]": {"test_system": "Streptococcus pneumoniae", "assay": "MIC, Streptococcus pneumoniae", "type": "cell-based", "from_the_text": "(§1) Bacterial isolates were subjected to broth microdilution susceptibility testing, performed according to Clinical and Laboratory Standards Institute (CLSI) methods ([46]), using panels prepared in-house. Meropenem was purchased from Sandoz, and all other antibiotics were from Sigma-Aldrich. Xeruborbactam was synthesized at Qpex Biopharma, San Diego, CA. Avibactam was purchased from eNovation Chemicals LLC, Bridgewater, NJ, USA; zidebactam was from MedKoo Biosciences, Inc., Morrisville, NC, and nacubactam was from Advanced ChemBlocks, Hayward, CA. Durlobactam was synthesized at Acme Bioscience, Palo Alto, CA, USA."}, "[2]": {"test_system": "Acinetobacter baumannii", "assay": "Broth microdilution MIC (CLSI), Acinetobacter baumannii", "type": "cell-based", "settings": "Acinetobacter baumannii", "how_it_was_run": "(§2)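 MICs by CLSI broth microdilution in in-house panels. Strains tested were engineered strains carrying porin and efflux mutation combinations, KPC-producing clinical isolates and derivatives cured of KPC plasmids, and KPC-producing clinical isolates enriched for porin mutations.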"}, "[3]": {"test_system": "Klebsiella pneumoniae", "assay": "microbe, parasite or virus in culture", "type": "cell-based", "settings": "for MIC: Klebsiella pneumoniae", "how_it_was_run": "as §2"}, "[4]": {"test_system": "Enterococcus faecalis", "assay": "MIC, Enterococcus faecalis", "type": "cell-based", "from_the_text": "as §1"}, "[5]": {"test_system": "A. baumannii strain ATCC 17978", "assay": "Fluorescence microscopy, cellular morphology", "type": "cell-based, Acinetobacter baumannii", "settings": "xeruborbactam, meropenem 1× and 2× MIC; aztreonam 2× MIC; amdinocillin 2 μg/mL", "protocol": "Single colonies of K. pneumoniae strain KPM1026a, A. baumannii strain ATCC 17978, and P. aeruginosa strain PAM1154 were picked from LB agar plates, inoculated in cation-adjusted Mueller-Hinton broth (CA-MHB), and incubated overnight at 30°C with rolling. Overnight cultures were diluted into fresh CA-MHB and incubated at 30°C, with rolling, until they reached an OD600 of ≈0.12 to 0.15 (equivalent to ~2 × 10^8 CFU/mL). Samples were then treated with compounds and incubated at 30°C, with rolling. After 1 or 2 h of treatment, cells were collected and stained with a dye mix containing FM4-64 (1 μg/mL), DAPI (4′,6-diamidino-2-phenylindole) (2 μg/mL), and SYTOX green (0.5 μM) (Molecular Probes, Invitrogen, or Thermo Fisher Scientific). Cells were transferred onto an agarose pad containing 1.2% agarose and 20% LB medium for microscopy. Microscopy was performed as previously described ([34])."}},
  "note": "Values joined by “and” are separate entries in the source; they are usually repeats but may differ in a detail not shown here. Equal values may be shown once. Read-outs that look alike come from different tables or passages of the source.",
  "data": [
    {"compound": "C[C@@H](O)[C@H]1C(=O)N2C(C(=O)O)=C(S[C@@H]3CN[C@H](C(=O)N(C)C)C3)[C@H](C)[C@H]12", "note": "[Meropenem]", "values": [
      {"measurement": "MIC", "setting": "[1]; Streptococcus pneumoniae", "value": 0.125, "unit": "µg/mL"},
      {"measurement": "MIC", "setting": "[1]; Streptococcus pneumoniae, sp001, read-out: MIC", "value": "≤ 0.03", "unit": "µg/mL"},
      {"measurement": "MIC", "setting": "[1]; Streptococcus pneumoniae, sp002, read-out: MIC", "value": "≤ 0.03", "unit": "µg/mL"},
      {"measurement": "MIC", "setting": "[1]; Streptococcus pneumoniae, sp003, read-out: MIC", "value": "≤ 0.03", "unit": "µg/mL"},
      {"measurement": "MIC", "setting": "[1]; Streptococcus pneumoniae, sp004, read-out: MIC", "value": 0.25, "unit": "µg/mL"},
      {"measurement": "MIC", "setting": "[1]; Streptococcus pneumoniae, sp005, read-out: MIC", "value": 0.06, "unit": "µg/mL"},
      {"measurement": "MIC", "setting": "[1]; Streptococcus pneumoniae, sp006, read-out: MIC", "value": 0.25, "unit": "µg/mL"},
      {"measurement": "MIC", "setting": "[1]; Streptococcus pneumoniae, sp009, read-out: MIC", "value": 0.25, "unit": "µg/mL"},
      {"measurement": "MIC", "setting": "[1]; Streptococcus pneumoniae, sp117, read-out: MIC", "value": 0.25, "unit": "µg/mL"},
      {"measurement": "MIC", "setting": "[1]; Streptococcus pneumoniae, sp118, read-out: MIC", "value": 0.25, "unit": "µg/mL"},
      {"measurement": "MIC", "setting": "[1]; Streptococcus pneumoniae, sp119, read-out: MIC", "value": 0.25, "unit": "µg/mL"},
      {"measurement": "MIC", "setting": "[1]; Streptococcus pneumoniae, sp120, read-out: MIC", "value": 0.25, "unit": "µg/mL"},
      {"measurement": "MIC", "setting": "[1]; Streptococcus pneumoniae, sp122, read-out: MIC", "value": 4, "unit": "µg/mL"},
      {"measurement": "MIC", "setting": "[1]; Streptococcus pneumoniae, sp123, read-out: MIC", "value": 0.25, "unit": "µg/mL"},
      {"measurement": "MIC", "setting": "[1]; Streptococcus pneumoniae, sp125, read-out: MIC", "value": 0.25, "unit": "µg/mL"},
      {"measurement": "MIC", "setting": "[1]; Streptococcus pneumoniae, sp126, read-out: MIC", "value": 0.25, "unit": "µg/mL"},
      {"measurement": "MIC", "setting": "[1]; sp008", "value": 0.125, "unit": "µg/mL"},
      {"measurement": "MIC", "setting": "[1]; sp121", "value": 0.125, "unit": "µg/mL"},
      {"measurement": "MIC", "setting": "[2]; ATCC17978", "value": "0.25 µg/mL and 0.66 µM"},
      {"measurement": "MIC", "setting": "[2]; strain ACM1013, ΔadeIJK", "value": 0.125, "unit": "µg/mL"},
      {"measurement": "MIC", "setting": "[2]; strain ACM1014, ΔadeABC", "value": 0.125, "unit": "µg/mL"},
      {"measurement": "MIC", "setting": "[2]; strain ACM1015, ΔadeIJK ΔadeABC", "value": 0.06, "unit": "µg/mL"},
      {"measurement": "MIC", "setting": "[2]; strain ACM1027, adeN (AdeIJK overexpression)", "value": 1, "unit": "µg/mL"},
      {"measurement": "MIC", "setting": "[2]; strain ACM1030, adeS (AdeABC overexpression)", "value": 0.5, "unit": "µg/mL"},
      {"measurement": "MIC90", "setting": "[3]", "value": "≤0.06", "unit": "µg/mL"},
      {"measurement": "MIC", "setting": "[3]; ATCC49816", "value": "0.03 µg/mL and 0.08 µM"},
      {"measurement": "MIC", "setting": "[3]; KPM2601 (KPC-3; ΔompK35), alone", "value": 32, "unit": "µg/mL"},
      {"measurement": "MIC", "setting": "[3]; KPM2631 (KPC-3; ompK36_fs ΔompK35), alone", "value": 256, "unit": "µg/mL"},
      {"measurement": "MIC", "setting": "[3]; KPM3532 (TolQ::M189K), alone", "value": 0.06, "unit": "µg/mL"},
      {"measurement": "MIC", "setting": "[3]; KPM3532, TolQ::M189K", "value": 0.06, "unit": "µg/mL"},
      {"measurement": "MIC", "setting": "[3]; KPM3534 (TolQ::S31F), alone", "value": 0.06, "unit": "µg/mL"},
      {"measurement": "MIC", "setting": "[3]; KPM3534, TolQ::S31F", "value": 0.06, "unit": "µg/mL"},
      {"measurement": "MIC", "setting": "[3]; KPM4127 (KPM3532 TolQ::M189K/KPC-3), alone", "value": 32, "unit": "µg/mL"},
      {"measurement": "MIC", "setting": "[3]; KPM4128 (KPM3534 TolQ::S31F/KPC-3), alone", "value": 32, "unit": "µg/mL"},
      {"measurement": "MIC", "setting": "[3]; KPM4129 (KPM3532 TolQ::M189K/NDM-1), alone", "value": "> 64", "unit": "µg/mL"},
      {"measurement": "MIC", "setting": "[3]; KPM4130 (KPM3534 TolQ::S31F/NDM-1), alone", "value": "> 64", "unit": "µg/mL"},
      {"measurement": "MIC", "setting": "[3]; KPM4235, TolQ::IP(183–1844)PR", "value": 0.06, "unit": "µg/mL"},
      {"measurement": "MIC", "setting": "[3]; KPM4236, TolQ::TAA at aa 103", "value": 0.06, "unit": "µg/mL"},
      {"measurement": "MIC", "setting": "[3]; KPM4238, TolQ::S25F", "value": 0.06, "unit": "µg/mL"},
      {"measurement": "MIC", "setting": "[3]; KPM4239, TolQ::S28F", "value": 0.06, "unit": "µg/mL"},
      {"measurement": "MIC", "setting": "[3]; KPM4240, TolQ::S25Y", "value": 0.06, "unit": "µg/mL"},
      {"measurement": "MIC", "setting": "[3]; no-plasmid strain KPM1026a", "value": 0.03, "unit": "µg/mL"},
      {"measurement": "MIC", "setting": "[3]; no-plasmid strain KPM1027", "value": 0.06, "unit": "µg/mL"},
      {"measurement": "MIC", "setting": "[3]; no-plasmid strain KPM1171", "value": 2, "unit": "µg/mL"},
      {"measurement": "MIC", "setting": "[3]; no-plasmid strain KPM2040", "value": 0.125, "unit": "µg/mL"},
      {"measurement": "MIC", "setting": "[3]; no-plasmid strain KPM2600", "value": 0.06, "unit": "µg/mL"},
      {"measurement": "MIC", "setting": "[3]; no-plasmid strain KPM2613", "value": 0.25, "unit": "µg/mL"},
      {"measurement": "MIC", "setting": "[3]; strain KPM2600, ΔompK35", "value": 0.06, "unit": "µg/mL"},
      {"measurement": "MIC", "setting": "[3]; strain KPM2613, ΔompK35 ompK36_2040", "value": 0.25, "unit": "µg/mL"},
      {"measurement": "MIC", "setting": "[3]; strain KPM2696, ΔacrB", "value": 0.03, "unit": "µg/mL"},
      {"measurement": "MIC", "setting": "[4]; efs003", "value": 2, "unit": "µg/mL"},
      {"measurement": "MIC", "setting": "[4]; efs004", "value": 4, "unit": "µg/mL"},
      {"measurement": "MIC", "setting": "[4]; efs005", "value": 4, "unit": "µg/mL"},
      {"measurement": "MIC", "setting": "[4]; efs006", "value": 2, "unit": "µg/mL"},
      {"measurement": "MIC", "setting": "[4]; efs007", "value": 4, "unit": "µg/mL"},
      {"measurement": "MIC", "setting": "[4]; efs026", "value": 2, "unit": "µg/mL"},
      {"measurement": "MIC", "setting": "[4]; efs071", "value": 4, "unit": "µg/mL"},
      {"measurement": "MIC", "setting": "[4]; efs072", "value": 2, "unit": "µg/mL"},
      {"measurement": "MIC", "setting": "[4]; efs073", "value": 4, "unit": "µg/mL"},
      {"measurement": "MIC", "setting": "[4]; efs090", "value": 1, "unit": "µg/mL"},
      {"measurement": "MIC", "setting": "[4]; efs091", "value": 1, "unit": "µg/mL"},
      {"measurement": "MIC", "setting": "[4]; efs092", "value": 8, "unit": "µg/mL"},
      {"measurement": "MIC", "setting": "[4]; efs093", "value": 16, "unit": "µg/mL"},
      {"measurement": "MIC", "setting": "[4]; efs094", "value": "> 32", "unit": "µg/mL"},
      {"measurement": "MIC", "setting": "[4]; efs095", "value": 4, "unit": "µg/mL"},
      {"measurement": "MIC", "setting": "[4]; efs096", "value": 4, "unit": "µg/mL"},
      {"measurement": "cellular morphology", "setting": "[5]", "value": "swelling and rounding but not elongation"}
    ]}
  ]
}
